Reference: patent US10906905B2, “Five-membered heteroaryl ring bridged ring derivative, preparation method therefor and medical use thereof” (Jiangsu Hengrui Medicine Co., Ltd., priority 2016, dated 2021)

Legend:
[1] = target: recombinant human VEGFR2 enzyme (Homo sapiens (Human), UniProt P35968); experiment: Inhibition of VEGFR2 kinase activity (Z'-LYTE Kinase Assay Kit); assay type: biochemical; settings: ATP 50 μM; read-out: IC50 of inhibition effect on VEGFR2 kinase activity
Protocol: The inhibition effect of VEGFR2 kinase activity in vitro was determined by the following method.
The inhibition effect of the compounds of the present invention on VEGFR2 kinase activity was determined by the following experimental method:
After reaction at 25° C. for 2 hours, 5 μL of detection reagent was added to each well. […] The IC50 values of the compounds for enzyme inhibition were calculated using Graphpad prism software based on each concentration of the compound and the corresponding signal value thereof.

[2] = system: Smad signaling pathway of TGFβRI; experiment: Inhibition of Smad signaling pathway of TGFβRI (3TP-lux luciferase reporter in HepG2 cell); assay type: cell-based; settings: Homo sapiens; HepG2 cell, 3TP-lux plasmid, 18 hours; read-out: IC50 on the inhibition of Smad signaling pathway of TGFβRI

Chain of recombinant human VEGFR2 enzyme (P35968 20-1356): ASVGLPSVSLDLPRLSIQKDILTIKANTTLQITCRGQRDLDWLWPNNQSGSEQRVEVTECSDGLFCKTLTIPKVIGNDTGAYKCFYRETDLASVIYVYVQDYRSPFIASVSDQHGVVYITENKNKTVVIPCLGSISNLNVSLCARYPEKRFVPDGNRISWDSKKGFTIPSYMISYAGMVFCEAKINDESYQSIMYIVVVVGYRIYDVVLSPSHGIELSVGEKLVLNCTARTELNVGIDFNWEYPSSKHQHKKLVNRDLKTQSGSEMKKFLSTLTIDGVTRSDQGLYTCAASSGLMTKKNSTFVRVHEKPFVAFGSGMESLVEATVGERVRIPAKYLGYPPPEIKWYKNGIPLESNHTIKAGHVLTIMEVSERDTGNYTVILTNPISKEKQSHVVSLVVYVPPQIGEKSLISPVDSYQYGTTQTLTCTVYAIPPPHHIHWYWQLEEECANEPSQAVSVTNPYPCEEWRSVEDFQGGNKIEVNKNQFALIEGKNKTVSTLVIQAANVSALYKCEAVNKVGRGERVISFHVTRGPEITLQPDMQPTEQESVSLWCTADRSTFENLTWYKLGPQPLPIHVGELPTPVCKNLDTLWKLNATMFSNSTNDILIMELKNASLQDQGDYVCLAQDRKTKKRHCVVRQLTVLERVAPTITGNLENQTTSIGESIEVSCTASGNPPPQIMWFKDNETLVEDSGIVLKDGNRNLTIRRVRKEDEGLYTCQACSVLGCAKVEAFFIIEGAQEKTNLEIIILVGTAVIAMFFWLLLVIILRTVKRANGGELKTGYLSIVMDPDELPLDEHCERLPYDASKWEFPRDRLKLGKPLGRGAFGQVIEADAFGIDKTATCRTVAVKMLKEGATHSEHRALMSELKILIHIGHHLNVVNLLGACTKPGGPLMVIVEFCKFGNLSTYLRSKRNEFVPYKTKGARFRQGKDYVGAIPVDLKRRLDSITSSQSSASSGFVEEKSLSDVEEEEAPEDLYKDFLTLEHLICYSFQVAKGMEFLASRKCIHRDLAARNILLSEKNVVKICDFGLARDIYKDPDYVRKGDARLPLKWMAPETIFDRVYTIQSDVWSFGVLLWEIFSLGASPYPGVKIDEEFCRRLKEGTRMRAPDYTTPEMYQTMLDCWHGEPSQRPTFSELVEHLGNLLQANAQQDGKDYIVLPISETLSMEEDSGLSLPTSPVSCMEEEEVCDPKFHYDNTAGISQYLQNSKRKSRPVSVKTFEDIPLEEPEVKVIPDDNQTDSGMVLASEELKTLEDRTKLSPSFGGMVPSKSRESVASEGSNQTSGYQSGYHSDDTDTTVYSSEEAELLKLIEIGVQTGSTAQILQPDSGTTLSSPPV

Structure (SMILES)	IC50 [1] [nM]	IC50 [2] [nM]
Cc1cccc(-c2nc3n(c2-c2ccc4nccc(C(N)=O)c4c2)[C@H]2CC[C@@H]3C2)n1 [Example 1-1, 6-((5S,8R)-2-(6-Methylpyridin-2-yl)-5,6,7,8-tetrahydro-5,8-methanoimidazo[1,2-a]pyridin-3-yl)quinoline-4-carboxamide]	3050	36
Cc1cccc(-c2nc3n(c2-c2ccc4nnc(C(N)=O)n4c2)[C@H]2CC[C@@H]3C2)n1 [Example 2-1, 6-((5S,8R)-2-(6-Methylpyridin-2-yl)-5,6,7,8-tetrahydro-5,8-methanoimidazo[1,2-a]pyridin-3-yl)[1,2,4]triazolo[4,3-a]pyridine-3-carboxamide]	1160	21
Cc1cccc(-c2nc3n(c2-c2ccnc(-c4ccc(S(C)(=O)=O)cc4)c2)[C@H]2CC[C@@H]3C2)n1 [Example 3-1, (5S,8R)-2-(6-Methylpyridin-2-yl)-3-(2-(4-(methylsulfonyl)phenyl)pyridin-4-yl)-5,6,7,8-tetrahydro-5,8-methanoimidazo[1,2-a]pyridine]	2890	19
NC(=O)c1ccnc2ccc(-c3c(-c4ccc(F)cn4)nc4n3[C@H]3CC[C@@H]4C3)cc12 [Example 39-1, 6-((5S,8R)-2-(5-Fluoropyridin-2-yl)-5,6,7,8-tetrahydro-5,8-methanoimidazo[1,2-a]pyridin-3-yl)quinoline-4-carboxamide]	6300	24
